Patent US20250025438A1, “Derivative of aspartic acid and use thereof in treatment of metabolic diseases such as hepatic fibrosis and non-alcoholic hepatitis” (SHENZHEN JINGTAI TECHNOLOGY CO., LTD., priority 2021, published 2025)
Where a name gives a salt, the structure may show the parent alone.

Assays:
[1] = test system: carbon tetrachloride-induced liver fibrosis; assay: Carbon tetrachloride-induced liver fibrosis model in mice, Masson staining; format: in vivo, C57BL/6 wild-type mice; conditions: CCl4 mice
Procedure: Long-term intraperitoneal injection of carbon tetrachloride (CCl4) induced reversible liver fibrosis, which was often used to screen and evaluate anti-hepatic fibrosis drugs. C57BL/6 wild-type mice were randomly divided into control group, carbon tetrachloride group and treatment group. The treatments were as follows:
Mice in the carbon tetrachloride group: The animals were intraperitoneally injected with carbon tetrachloride in a total amount of 0.5 μL/g, diluted with corn oil to 10 μL/g, 3 times/week. After 4 weeks of modeling, the carbon tetrachloride group was randomly divided into groups, plus the negative control group: • (1) Mice in the negative control group: The animals were intraperitoneally injected with corn oil solution, 10 μL/g, 3 times/week; at the same time, 200 μL of drinking water was administered by gavage. • (2) Mice in the carbon tetrachloride group: The animals were intraperitoneally injected with carbon tetrachloride in a total amount of 0.5 μL/g, diluted with corn oil to 10 μL/g, 3 times/week; 200 μL of normal saline was administered by gavage. • (3) Mice in the aspartic acid group: The animals were intraperitoneally injected with carbon tetrachloride in a total amount of 0.5 μL/g, diluted with corn oil to 10 μL/g, 3 times/week; 30 mg/kg aspartic acid was administered by gavage. • (4) Mice in the treatment group: The animals were intraperitoneally injected with carbon tetrachloride in a total amount of 0.5 μL/g, diluted with corn oil to 10 μL/g, 3 times/week; different doses of the compounds of the present invention were administered by gavage.
The animals were treated for 4 weeks, and blood was collected from the eyeballs 48 hours after the last injection of carbon tetrachloride. About 1 mL of whole blood per animal was collected in an anticoagulant tube, and immediately placed on ice and allowed to stand for 1 hour. Centrifugation was performed at 4° C., 3000 rpm for 15 min. About 0.4 mL of the supernatant was taken and added into an EP tube, in which it should be carefully avoided to pipet the lower layer liquid, and then it was stored in a −80° C. refrigerator.
It should be noted to use new paraffin when renewed; • (5 Embedding: Melted paraffin (60° C.) was added into a small iron trough, the paraffin-soaked tissue was taken and placed therein, the embedding box at the side with label was buckled, and the melted paraffin was added again. It should be noted that air bubbles should be removed during the operation process; • (6 The paraffin-embedded tissue was placed on an ice table of an automatic embedding machine. After the paraffin solidified, it was placed in a −20° C. refrigerator for further cooling.
• (1 The wax block with embedded tissue was placed at the corresponding position of a microtome; • (2 The slice thickness was adjusted to the thickness required for the experiment. Generally, 3 to 4 μm should be used for slicing; • (3 6 to 8 Consecutive tissue sections were gently placed and fully stretched in a 55° C. water bath expander; • (4 The continuous tissue sections were gently separated by tweezers; • (5 A wax section that was completely stretched and had no wrinkles in the tissue was selected, and taken out with an adhesive slide so that the section was attached to the slide;
Masson staining is one of the classic and authoritative staining methods for collagen fiber staining. Collagen fibers appear […].

Smad3 = assay: In vitro efficacy in semi-activated LX2 cells, qPCR: Smad3; format: cell-based; conditions: 48 hours, Q-PCR; for inhibition of the expression of Smad3 at the mRNA level: Table 2; for inhibition at 50 µM: Homo sapiens, LX-2, 50 µM, read-out: Smad3 mRNA inhibition rate
Summary of the method: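 LX-2 human hepatic stellate cells were plated, allowed to adhere for 12 hours, then exposed to test compound at 50 µM for 48 hours. Total RNA was extracted, reverse-transcribed to cDNA, and target mRNA quantified by SYBR Green qPCR using the relative quantification method.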

collagen I = assay: Semi-activated LX2 cells, Western blot: collagen I protein; format: cell-based; conditions: 50-400 μM, 48 hours, FIG. 1, vs 50 μM aspartic acid
[2] = 20 mg/kg/d by gavage, 4 weeks, vs untreated group and aspartic acid group (30 mg/kg/d), FIG. 6

`COC(=O)[C@@H](N)CC(=O)O` [Compound 4] was tested, and the “collagen deposition in the mouse liver tissue (Masson)” value (from here on “collagen deposition”) [1, 2] was “reduced”, the “inhibition of the expression of Smad3 at the mRNA level” value (Smad3) was “could inhibit” and the inhibition at 50 µM (Smad3) was 25 to 50%.

In the case of `COC(=O)C[C@H](N)C(=O)O` [Compound 6], the “collagen deposition” value ([1]; 10 mg/kg/bid, 50 mg/kg/bid, 150 mg/kg/bid, vs untreated group, FIG. 7) is reported as “decreased”, the “collagen deposition” value ([1]; 25 mg/kg/d by gavage, 4 weeks, vs untreated group and aspartic acid group (30 mg/kg/d), FIG. 6) is reported as “reduced” and the “inhibitory effect on collagen I protein expression as compared to ASP” value (from here on “inhibitory effect … compared to ASP”) (collagen I) is reported as “stronger inhibitory effects”. For the same compound, the “inhibition of the expression of Smad3 at the mRNA level” value (Smad3) was “could inhibit” and the inhibition at 50 µM (Smad3) was 25 to 50%.

For `N[C@@H](CCC(=O)O)C(=O)O` [Compound 47], the “collagen deposition” value [1, 2] was “reduced”, the “inhibitory effect … compared to ASP” value (collagen I) was “stronger inhibitory effects” and the inhibition at 50 µM (Smad3) was 1 to 10%.

For `COC(=O)C[C@H](N)C(=O)OCOC(=O)[C@@H](N)CC(=O)OC` [Compound 54, 4-dimethyl O′1,01-methylene (2S,2'S)-bis (2-aminosuccinate) hydrochloride], the “collagen deposition” value ([1]; 40 mg/kg/d by gavage, 4 weeks, vs untreated group and aspartic acid group (30 mg/kg/d), FIG. 6) was “reduced” and the “inhibitory effect … compared to ASP” value (collagen I) was “stronger inhibitory effects”.
